Results published in ChEMBL document CHEMBL4138084, “Structure-activity relationship study of the tumour-targeting peptide A20FMDV2 via modification of Lys16, Leu13, and N- and/or C-terminal functionality” (Eur J Med Chem, 2017).
Activity calls are given as the source filed them. The calls are words filed in the database; no cut-off is given here.

Key:
Integrin alpha-V/beta-6 [1] = target: T1, Integrin alpha-V/beta-6 (Homo sapiens, UniProt P06756+P18564); assay: Binding affinity to alphav/beta6 integrin in human A375Pbeta6 cells assessed as drug internalization at 100 nM after 15 mins by flow cytometric analysis relative to biotinylated A20FMDV2; format: ADME, cell-based; conditions: 0.25 h, 0.1 µM
Target sequence in this assay (P06756 31-889 limits assumed): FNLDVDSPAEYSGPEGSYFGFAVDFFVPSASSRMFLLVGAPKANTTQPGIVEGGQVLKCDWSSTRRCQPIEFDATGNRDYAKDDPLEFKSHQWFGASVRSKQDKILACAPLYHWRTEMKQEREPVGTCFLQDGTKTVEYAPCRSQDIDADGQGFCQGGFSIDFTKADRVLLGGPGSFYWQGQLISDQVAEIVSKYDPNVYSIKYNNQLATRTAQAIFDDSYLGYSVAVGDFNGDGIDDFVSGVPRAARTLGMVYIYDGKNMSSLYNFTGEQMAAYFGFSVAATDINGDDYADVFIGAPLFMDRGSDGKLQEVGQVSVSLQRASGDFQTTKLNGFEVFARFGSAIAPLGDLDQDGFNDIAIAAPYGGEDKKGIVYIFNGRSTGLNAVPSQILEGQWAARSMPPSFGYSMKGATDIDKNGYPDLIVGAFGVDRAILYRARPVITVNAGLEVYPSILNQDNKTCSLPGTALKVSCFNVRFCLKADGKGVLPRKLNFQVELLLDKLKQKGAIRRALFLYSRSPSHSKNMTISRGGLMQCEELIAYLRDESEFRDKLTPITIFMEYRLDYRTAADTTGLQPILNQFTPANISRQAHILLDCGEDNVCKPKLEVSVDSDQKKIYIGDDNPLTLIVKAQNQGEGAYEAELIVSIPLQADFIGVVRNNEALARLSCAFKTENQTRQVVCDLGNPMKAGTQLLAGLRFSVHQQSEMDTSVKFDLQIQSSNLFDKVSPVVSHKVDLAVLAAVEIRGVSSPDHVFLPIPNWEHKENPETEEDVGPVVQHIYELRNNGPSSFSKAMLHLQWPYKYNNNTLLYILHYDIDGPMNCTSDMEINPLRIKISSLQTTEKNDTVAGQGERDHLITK
Target sequence in this assay (P06756 891-1048 limits assumed): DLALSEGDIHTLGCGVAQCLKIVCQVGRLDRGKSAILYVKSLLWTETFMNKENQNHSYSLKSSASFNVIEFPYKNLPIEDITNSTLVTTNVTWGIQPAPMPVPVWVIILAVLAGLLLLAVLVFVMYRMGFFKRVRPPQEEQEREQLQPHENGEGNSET
Target sequence in this assay (P18564 22-788 limits assumed): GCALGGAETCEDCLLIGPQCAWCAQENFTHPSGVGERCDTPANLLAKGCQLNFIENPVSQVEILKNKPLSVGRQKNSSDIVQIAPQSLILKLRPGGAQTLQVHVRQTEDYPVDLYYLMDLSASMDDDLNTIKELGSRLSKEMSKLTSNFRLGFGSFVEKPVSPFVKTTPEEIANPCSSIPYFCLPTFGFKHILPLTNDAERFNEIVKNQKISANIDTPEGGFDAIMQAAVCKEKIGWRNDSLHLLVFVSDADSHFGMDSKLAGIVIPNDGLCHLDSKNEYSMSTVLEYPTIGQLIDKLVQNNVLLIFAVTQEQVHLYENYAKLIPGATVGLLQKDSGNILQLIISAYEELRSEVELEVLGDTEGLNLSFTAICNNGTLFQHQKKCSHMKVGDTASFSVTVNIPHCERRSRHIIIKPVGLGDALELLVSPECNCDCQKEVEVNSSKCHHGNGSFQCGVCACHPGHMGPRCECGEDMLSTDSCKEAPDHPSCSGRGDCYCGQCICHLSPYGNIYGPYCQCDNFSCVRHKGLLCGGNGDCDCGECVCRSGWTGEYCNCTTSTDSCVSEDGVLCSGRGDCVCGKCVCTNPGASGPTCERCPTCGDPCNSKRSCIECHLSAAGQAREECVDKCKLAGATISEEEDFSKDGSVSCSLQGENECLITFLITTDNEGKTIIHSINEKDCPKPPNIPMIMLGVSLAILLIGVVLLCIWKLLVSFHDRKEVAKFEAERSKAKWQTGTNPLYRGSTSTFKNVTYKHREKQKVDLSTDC

Integrin alpha-V/beta-6 [2] = target: T1, Integrin alpha-V/beta-6; assay: Binding affinity to alphav/beta6 integrin in human A375Pbeta6 cells at 100 nM after 15 mins by flow cytometric analysis relative to biotinylated A20FMDV2; format: cell-based
[3] = Drug uptake in human A375PPuro cells at 1000 nM after 15 mins by flow cytometric analysis; format: ADME, cell-based; conditions: 0.25 h, 1 µM
[4] = target: Integrin alpha-V/beta-8 (Homo sapiens) (UniProt P06756+P26012); assay: Binding affinity alphav/beta8 integrin in human A375PPuro cells at 1000 nM after 15 mins by flow cytometric analysis; format: cell-based
[5] = target: Integrin alpha-V/beta-5 (Homo sapiens) (UniProt P06756+P18084); assay: Binding affinity alphav/beta5 integrin in human A375PPuro cells at 1000 nM after 15 mins by flow cytometric analysis; format: cell-based
[6] = tested on: Integrin alpha-V/beta-1 (Homo sapiens); assay: Binding affinity alphav/beta1 integrin in human A375PPuro cells at 1000 nM after 15 mins by flow cytometric analysis

CC(=O)N(C(=O)CN(CCN(CCN(CC(=O)O)CC(=O)O)CC(=O)O)CC(=O)O)[C@@H](CC(N)=O)C(=O)N[C@@H](CCCCNC(=O)CCCC[C@@H]1SC[C@@H]2NC(=O)N[C@@H]21)C(=O)N[C@H](C(=O)N1CCC[C@H]1C(=O)N[C@@H](CC(N)=O)C(=O)N[C@@H](CC(C)C)C(=O)N[C@@H](CCCNC(=N)N)C(=O)NCC(=O)N[C@@H](CC(=O)O)C(=O)N[C@@H](CC(C)C)C(=O)N[C@@H](CCC(N)=O)C(=O)N[C@H](C(=O)N[C@@H](CC(C)C)C(=O)N[C@@H](C)C(=O)N[C@@H](CCC(N)=O)C(=O)N[C@@H](CCCCN)C(=O)N[C@H](C(=O)N[C@@H](C)C(=O)N[C@@H](CCCNC(=N)N)C(=O)N[C@H](C(=O)O)[C@@H](C)O)C(C)C)C(C)C)C(C)C
fold change (FC) (Integrin alpha-V/beta-6 [1]): 1.05 | fold change (FC) (Integrin alpha-V/beta-6 [2]): 1.48 | Drug uptake [3]: Not Active

CC(C)CC[C@H](NC(=O)[C@@H](NC(=O)[C@H](CCC(N)=O)NC(=O)[C@H](CC(C)C)NC(=O)[C@H](CC(=O)O)NC(=O)CNC(=O)[C@H](CCCNC(=N)N)NC(=O)[C@H](CC(C)C)NC(=O)[C@H](CC(N)=O)NC(=O)[C@@H]1CCCN1C(=O)[C@@H](NC(=O)[C@H](CCCCNC(=O)CCCC[C@@H]1SC[C@@H]2NC(=O)N[C@@H]21)NC(=O)[C@@H](N)CC(N)=O)C(C)C)C(C)C)C(=O)N[C@@H](C)C(=O)N[C@@H](CCC(N)=O)C(=O)N[C@@H](CCCCN)C(=O)N[C@H](C(=O)N[C@@H](C)C(=O)N[C@@H](CCCNC(=N)N)C(=O)N[C@H](C(=O)O)[C@@H](C)O)C(C)C
fold change (FC) (Integrin alpha-V/beta-6 [1]): 0.66 | fold change (FC) (Integrin alpha-V/beta-6 [2]): 0.45 | Drug uptake [3]: Not Active

CC(C)C[C@H](NC(=O)[C@H](CC(=O)O)NC(=O)CNC(=O)[C@H](CCCNC(=N)N)NC(=O)[C@H](CC(C)C)NC(=O)[C@H](CC(N)=O)NC(=O)[C@@H]1CCCN1C(=O)[C@@H](NC(=O)[C@H](CCCCNC(=O)CCCC[C@@H]1SC[C@@H]2NC(=O)N[C@@H]21)NC(=O)[C@@H](N)CC(N)=O)C(C)C)C(=O)N[C@@H](CCC(N)=O)C(=O)N[C@H](C(=O)N[C@@H](CC(C)C)C(=O)N[C@@H](C)C(=O)N[C@@H](CCC(N)=O)C(=O)N[C@@H](CCCCN)C(=O)N[C@H](C(=O)N[C@@H](C)C(=O)N[C@@H](CCCNC(=N)N)C(=O)N[C@@H](C(=O)O)[C@H](C)O)C(C)C)C(C)C
fold change (FC) (Integrin alpha-V/beta-6 [1]): 0.99 | fold change (FC) (Integrin alpha-V/beta-6 [2]): 0.53 | Drug uptake [3]: Not Active

CCC(CC)[C@H](NC(=O)[C@@H](NC(=O)[C@H](CCC(N)=O)NC(=O)[C@H](CC(C)C)NC(=O)[C@H](CC(=O)O)NC(=O)CNC(=O)[C@H](CCCNC(=N)N)NC(=O)[C@H](CC(C)C)NC(=O)[C@H](CC(N)=O)NC(=O)[C@@H]1CCCN1C(=O)[C@@H](NC(=O)[C@H](CCCCNC(=O)CCCC[C@@H]1SC[C@@H]2NC(=O)N[C@@H]21)NC(=O)[C@@H](N)CC(N)=O)C(C)C)C(C)C)C(=O)N[C@@H](C)C(=O)N[C@@H](CCC(N)=O)C(=O)N[C@@H](CCCCN)C(=O)N[C@H](C(=O)N[C@@H](C)C(=O)N[C@@H](CCCNC(=N)N)C(=O)N[C@H](C(=O)O)[C@@H](C)O)C(C)C
fold change (FC) (Integrin alpha-V/beta-6 [1]): 0.52 | fold change (FC) (Integrin alpha-V/beta-6 [2]): 0.7 | Drug uptake [3]: Not Active

CC(C)C[C@H](NC(=O)[C@H](CC(=O)O)NC(=O)CNC(=O)[C@H](CCCNC(=N)N)NC(=O)[C@H](CC(C)C)NC(=O)[C@H](CC(N)=O)NC(=O)[C@@H]1CCCN1C(=O)[C@@H](NC(=O)[C@H](CCCCNC(=O)CCCC[C@@H]1SC[C@@H]2NC(=O)N[C@@H]21)NC(=O)[C@H](CC(N)=O)NC(=O)CN1CCN(CC(=O)O)CCN(CC(=O)O)CCN(CC(=O)O)CC1)C(C)C)C(=O)N[C@@H](CCC(N)=O)C(=O)N[C@H](C(=O)N[C@@H](CC(C)C)C(=O)N[C@@H](C)C(=O)N[C@@H](CCC(N)=O)C(=O)N[C@@H](CCCCN)C(=O)N[C@H](C(=O)N[C@@H](C)C(=O)N[C@@H](CCCNC(=N)N)C(=O)N[C@H](C(=O)O)[C@@H](C)O)C(C)C)C(C)C
Activity [4]: inactive | Activity [5]: inactive | Activity [6]: inactive | Drug uptake [3]: Not Active

CC(C)C[C@H](NC(=O)[C@H](CC(=O)O)NC(=O)CNC(=O)[C@H](CCCNC(=N)N)NC(=O)[C@H](CC(C)C)NC(=O)[C@H](CC(N)=O)NC(=O)[C@@H]1CCCN1C(=O)[C@@H](NC(=O)[C@H](CCCCNC(=O)CCCC[C@@H]1SC[C@@H]2NC(=O)N[C@@H]21)NC(=O)[C@H](CC(N)=O)NC(=O)CNC(=O)CN(CCN(CCN(CC(=O)O)CC(=O)O)CC(=O)O)CC(=O)O)C(C)C)C(=O)N[C@@H](CCC(N)=O)C(=O)N[C@H](C(=O)N[C@@H](CC(C)C)C(=O)N[C@@H](C)C(=O)N[C@@H](CCC(N)=O)C(=O)N[C@@H](CCCCN)C(=O)N[C@H](C(=O)N[C@@H](C)C(=O)N[C@@H](CCCNC(=N)N)C(=O)N[C@H](C(=O)O)[C@@H](C)O)C(C)C)C(C)C
fold change (FC) (Integrin alpha-V/beta-6 [1]): 0.97 | fold change (FC) (Integrin alpha-V/beta-6 [2]): 1.28 | Drug uptake [3]: Not Active
